Experimental data taken from ChEMBL document CHEMBL1255447, “Efflux pumps, OprD porin, AmpC beta-lactamase, and multiresistance in Pseudomonas aeruginosa isolates from cystic fibrosis patients” (2010).
Values after ≈ are worked out from the molar mass of the structure shown.

What follows are compounds tested on Pseudomonas aeruginosa (assay: Antimicrobial activity against Pseudomonas aeruginosa isolate 13167 from fibrosis patient by Etest). Conditions: not given.
Assay type: functional

With `CC1(C)S[C@@H]2[C@H](NC(=O)C(C(=O)O)c3ccccc3)C(=O)N2[C@H]1C(=O)O` (some centres not stated) [CARBENICILLIN] as the compound, how does the MIC read?
The MIC was over 512 µg/mL.

These compounds were tested on Pseudomonas aeruginosa (assay: microbe, parasite or virus in culture). Conditions: isolate 13120.
Description: Antimicrobial activity against Pseudomonas aeruginosa isolate 13120 from fibrosis patient by Etest

Which MIC does the source give for `CC1(C)S[C@@H]2[C@H](NC(=O)C(C(=O)O)c3ccccc3)C(=O)N2[C@H]1C(=O)O` (some centres not stated) [CARBENICILLIN] here?
Its MIC is 256 µg/mL (≈ 677 µM).

What follows are compounds tested on Pseudomonas aeruginosa (assay: Antimicrobial activity against Pseudomonas aeruginosa isolate 14169c from fibrosis patient by Etest). Conditions: not given.
Assay type: functional

`CC1(C)S[C@@H]2[C@H](NC(=O)C(C(=O)O)c3ccccc3)C(=O)N2[C@H]1C(=O)O` (some centres not stated) [CARBENICILLIN] was tested. Which MIC did it give?
Its MIC is 512 µg/mL (≈ 1350 µM).

The compounds below were run on Pseudomonas aeruginosa (assay: Antimicrobial activity against Pseudomonas aeruginosa isolate 1529c from fibrosis patient by Etest). Conditions: not given.
Assay type: functional

With `CC1(C)S[C@@H]2[C@H](NC(=O)C(C(=O)O)c3ccccc3)C(=O)N2[C@H]1C(=O)O` (some centres not stated) [CARBENICILLIN] as the compound, how does the MIC read?
The MIC was 8 µg/mL (≈ 21.1 µM).

The compounds below were run on Pseudomonas aeruginosa (assay: Antimicrobial activity against Pseudomonas aeruginosa isolate 1530c from fibrosis patient by Etest). Conditions: not given.
Assay type: functional

Which MIC does the source give for `CC1(C)S[C@@H]2[C@H](NC(=O)C(C(=O)O)c3ccccc3)C(=O)N2[C@H]1C(=O)O` (some centres not stated) [CARBENICILLIN] here?
The MIC was 64 µg/mL (≈ 169 µM).

These compounds were tested on Pseudomonas aeruginosa (assay: Antimicrobial activity against Pseudomonas aeruginosa isolate 1333c from fibrosis patient by Etest). Conditions: not given.
Assay type: functional

`CC1(C)S[C@@H]2[C@H](NC(=O)C(C(=O)O)c3ccccc3)C(=O)N2[C@H]1C(=O)O` (some centres not stated) [CARBENICILLIN] was tested. Which MIC did it give?
Its MIC is over 512 µg/mL.

These compounds were tested on Pseudomonas aeruginosa (assay: Antimicrobial activity against Pseudomonas aeruginosa isolate 1240 from fibrosis patient by Etest). Conditions: not given.
Assay type: functional

How did the MIC turn out when `CC1(C)S[C@@H]2[C@H](NC(=O)C(C(=O)O)c3ccccc3)C(=O)N2[C@H]1C(=O)O` (some centres not stated) [CARBENICILLIN] was run?
Its MIC is 128 µg/mL (≈ 338 µM).

The compounds below were run on Pseudomonas aeruginosa (assay: Antimicrobial activity against Pseudomonas aeruginosa isolate 12142c from fibrosis patient by Etest). Conditions: not given.
Assay type: functional

Which MIC does the source give for `CC1(C)S[C@@H]2[C@H](NC(=O)C(C(=O)O)c3ccccc3)C(=O)N2[C@H]1C(=O)O` (some centres not stated) [CARBENICILLIN] here?
The MIC was over 512 µg/mL.

Each compound was assayed on Pseudomonas aeruginosa (assay: Antimicrobial activity against Pseudomonas aeruginosa isolate 1253 from fibrosis patient by Etest). Conditions: not given.
Assay type: functional

Which MIC does the source give for `CC1(C)S[C@@H]2[C@H](NC(=O)C(C(=O)O)c3ccccc3)C(=O)N2[C@H]1C(=O)O` (some centres not stated) [CARBENICILLIN] here?
The MIC was 256 µg/mL (≈ 677 µM).

What follows are compounds tested on Pseudomonas aeruginosa (assay: Antimicrobial activity against Pseudomonas aeruginosa isolate 1248c from fibrosis patient by Etest). Conditions: not given.
Assay type: functional

How did the MIC turn out when `CC1(C)S[C@@H]2[C@H](NC(=O)C(C(=O)O)c3ccccc3)C(=O)N2[C@H]1C(=O)O` (some centres not stated) [CARBENICILLIN] was run?
Its MIC is over 512 µg/mL.

These compounds were tested on Pseudomonas aeruginosa (assay: Antimicrobial activity against Pseudomonas aeruginosa isolate 1693c from fibrosis patient by Etest). Conditions: not given.
Assay type: functional

With `CC1(C)S[C@@H]2[C@H](NC(=O)C(C(=O)O)c3ccccc3)C(=O)N2[C@H]1C(=O)O` (some centres not stated) [CARBENICILLIN] as the compound, how does the MIC read?
Its MIC is 128 µg/mL (≈ 338 µM).

The compounds below were run on Pseudomonas aeruginosa (assay: Antimicrobial activity against Pseudomonas aeruginosa isolate 1495c from fibrosis patient by Etest). Conditions: not given.
Assay type: functional

With `CC1(C)S[C@@H]2[C@H](NC(=O)C(C(=O)O)c3ccccc3)C(=O)N2[C@H]1C(=O)O` (some centres not stated) [CARBENICILLIN] as the compound, how does the MIC read?
Its MIC is over 512 µg/mL.

The compounds below were run on Pseudomonas aeruginosa (assay: Antimicrobial activity against Pseudomonas aeruginosa isolate 15107 from fibrosis patient by Etest). Conditions: not given.
Assay type: functional

For `CC1(C)S[C@@H]2[C@H](NC(=O)C(C(=O)O)c3ccccc3)C(=O)N2[C@H]1C(=O)O` (some centres not stated) [CARBENICILLIN], which MIC is on record?
Its MIC is 128 µg/mL (≈ 338 µM).

These compounds were tested on Pseudomonas aeruginosa (assay: Antimicrobial activity against Pseudomonas aeruginosa isolate 1665 from fibrosis patient by Etest). Conditions: not given.
Assay type: functional

Which MIC does the source give for `CC1(C)S[C@@H]2[C@H](NC(=O)C(C(=O)O)c3ccccc3)C(=O)N2[C@H]1C(=O)O` (some centres not stated) [CARBENICILLIN] here?
Its MIC is over 512 µg/mL.

These compounds were tested on Pseudomonas aeruginosa (assay: Antimicrobial activity against Pseudomonas aeruginosa R70 Etest). Conditions: not given.
Assay type: functional

For `CC1(C)S[C@@H]2[C@H](NC(=O)C(C(=O)O)c3ccccc3)C(=O)N2[C@H]1C(=O)O` (some centres not stated) [CARBENICILLIN], which MIC is on record?
The MIC was over 512 µg/mL.

These compounds were tested on Pseudomonas aeruginosa (assay: Antimicrobial activity against Pseudomonas aeruginosa AHP Etest). Conditions: not given.
Assay type: functional

With `CC1(C)S[C@@H]2[C@H](NC(=O)C(C(=O)O)c3ccccc3)C(=O)N2[C@H]1C(=O)O` (some centres not stated) [CARBENICILLIN] as the compound, how does the MIC read?
The MIC was 32 µg/mL (≈ 84.6 µM).

Each compound was assayed on Pseudomonas aeruginosa (assay: Antimicrobial activity against Pseudomonas aeruginosa isolate 16008 from fibrosis patient by Etest). Conditions: not given.
Assay type: functional

`CC1(C)S[C@@H]2[C@H](NC(=O)C(C(=O)O)c3ccccc3)C(=O)N2[C@H]1C(=O)O` (some centres not stated) [CARBENICILLIN] was tested. Which MIC did it give?
Its MIC is at most 16 µg/mL.

These compounds were tested on Pseudomonas aeruginosa (assay: Antimicrobial activity against Pseudomonas aeruginosa 1405-con D2 by Etest). Conditions: not given.
Assay type: functional

For `CC1(C)S[C@@H]2[C@H](NC(=O)C(C(=O)O)c3ccccc3)C(=O)N2[C@H]1C(=O)O` (some centres not stated) [CARBENICILLIN], which MIC is on record?
Its MIC is 512 µg/mL (≈ 1350 µM).

The compounds below were run on Pseudomonas aeruginosa (assay: Antimicrobial activity against Pseudomonas aeruginosa R20 Etest). Conditions: not given.
Assay type: functional

For `CC1(C)S[C@@H]2[C@H](NC(=O)C(C(=O)O)c3ccccc3)C(=O)N2[C@H]1C(=O)O` (some centres not stated) [CARBENICILLIN], which MIC is on record?
Its MIC is 64 µg/mL (≈ 169 µM).

These compounds were tested on Pseudomonas aeruginosa (assay: Antimicrobial activity against Pseudomonas aeruginosa isolate 17145c from fibrosis patient by Etest). Conditions: not given.
Assay type: functional

How did the MIC turn out when `CC1(C)S[C@@H]2[C@H](NC(=O)C(C(=O)O)c3ccccc3)C(=O)N2[C@H]1C(=O)O` (some centres not stated) [CARBENICILLIN] was run?
The MIC was at most 16 µg/mL.

Each compound was assayed on Pseudomonas aeruginosa (assay: Antimicrobial activity against Pseudomonas aeruginosa isolate 17112 from fibrosis patient by Etest). Conditions: not given.
Assay type: functional

Which MIC does the source give for `CC1(C)S[C@@H]2[C@H](NC(=O)C(C(=O)O)c3ccccc3)C(=O)N2[C@H]1C(=O)O` (some centres not stated) [CARBENICILLIN] here?
Its MIC is 512 µg/mL (≈ 1350 µM).

These compounds were tested on Pseudomonas aeruginosa (assay: Antimicrobial activity against Pseudomonas aeruginosa isolate 12102 from fibrosis patient by Etest). Conditions: not given.
Assay type: functional

With `CC1(C)S[C@@H]2[C@H](NC(=O)C(C(=O)O)c3ccccc3)C(=O)N2[C@H]1C(=O)O` (some centres not stated) [CARBENICILLIN] as the compound, how does the MIC read?
Its MIC is 256 µg/mL (≈ 677 µM).

What follows are compounds tested on Pseudomonas aeruginosa (assay: Antimicrobial activity against Pseudomonas aeruginosa M1251 by Etest). Conditions: not given.

With `CC1(C)S[C@@H]2[C@H](NC(=O)C(C(=O)O)c3ccccc3)C(=O)N2[C@H]1C(=O)O` (some centres not stated) [CARBENICILLIN] as the compound, how does the MIC read?
The MIC was 512 µg/mL (≈ 1350 µM).

The compounds below were run on Pseudomonas aeruginosa (assay: Antimicrobial activity against Pseudomonas aeruginosa isolate 1247c from fibrosis patient by Etest). Conditions: not given.
Assay type: functional

Which MIC does the source give for `CC1(C)S[C@@H]2[C@H](NC(=O)C(C(=O)O)c3ccccc3)C(=O)N2[C@H]1C(=O)O` (some centres not stated) [CARBENICILLIN] here?
Its MIC is 128 µg/mL (≈ 338 µM).

Each compound was assayed on Pseudomonas aeruginosa (assay: Antimicrobial activity against Pseudomonas aeruginosa isolate 1712c from fibrosis patient by Etest). Conditions: not given.
Assay type: functional

With `CC1(C)S[C@@H]2[C@H](NC(=O)C(C(=O)O)c3ccccc3)C(=O)N2[C@H]1C(=O)O` (some centres not stated) [CARBENICILLIN] as the compound, how does the MIC read?
The MIC was over 512 µg/mL.

The compounds below were run on Pseudomonas aeruginosa (assay: Antimicrobial activity against Pseudomonas aeruginosa isolate 1726 from fibrosis patient by Etest). Conditions: not given.
Assay type: functional

With `CC1(C)S[C@@H]2[C@H](NC(=O)C(C(=O)O)c3ccccc3)C(=O)N2[C@H]1C(=O)O` (some centres not stated) [CARBENICILLIN] as the compound, how does the MIC read?
The MIC was at most 16 µg/mL.

What follows are compounds tested on Pseudomonas aeruginosa (assay: Antimicrobial activity against Pseudomonas aeruginosa isolate 1352c from fibrosis patient by Etest). Conditions: not given.
Assay type: functional

Which MIC does the source give for `CC1(C)S[C@@H]2[C@H](NC(=O)C(C(=O)O)c3ccccc3)C(=O)N2[C@H]1C(=O)O` (some centres not stated) [CARBENICILLIN] here?
The MIC was 512 µg/mL (≈ 1350 µM).

Each compound was assayed on Pseudomonas aeruginosa (assay: Antimicrobial activity against Pseudomonas aeruginosa isolate 3149 from fibrosis patient by Etest). Conditions: not given.
Assay type: functional

Which MIC does the source give for `CC1(C)S[C@@H]2[C@H](NC(=O)C(C(=O)O)c3ccccc3)C(=O)N2[C@H]1C(=O)O` (some centres not stated) [CARBENICILLIN] here?
The MIC was over 512 µg/mL.

These compounds were tested on Pseudomonas aeruginosa (assay: Antimicrobial activity against Pseudomonas aeruginosa isolate 1681c from fibrosis patient by Etest). Conditions: not given.
Assay type: functional

Which MIC does the source give for `CC1(C)S[C@@H]2[C@H](NC(=O)C(C(=O)O)c3ccccc3)C(=O)N2[C@H]1C(=O)O` (some centres not stated) [CARBENICILLIN] here?
Its MIC is 512 µg/mL (≈ 1350 µM).

Each compound was assayed on Pseudomonas aeruginosa (assay: microbe, parasite or virus in culture). Conditions: 2779-con.
Description: Antimicrobial activity against Pseudomonas aeruginosa 2779-con by Etest

`CC1(C)S[C@@H]2[C@H](NC(=O)C(C(=O)O)c3ccccc3)C(=O)N2[C@H]1C(=O)O` (some centres not stated) [CARBENICILLIN] was tested. Which MIC did it give?
Its MIC is 128 µg/mL (≈ 338 µM).

These compounds were tested on Pseudomonas aeruginosa (assay: Antimicrobial activity against Pseudomonas aeruginosa Z799/61 by Etest). Conditions: not given.
Assay type: functional

Which MIC does the source give for `CC1(C)S[C@@H]2[C@H](NC(=O)C(C(=O)O)c3ccccc3)C(=O)N2[C@H]1C(=O)O` (some centres not stated) [CARBENICILLIN] here?
Its MIC is at most 16 µg/mL.

What follows are compounds tested on Pseudomonas aeruginosa (assay: Antimicrobial activity against Pseudomonas aeruginosa isolate 15110c from fibrosis patient by Etest). Conditions: not given.
Assay type: functional

Which MIC does the source give for `CC1(C)S[C@@H]2[C@H](NC(=O)C(C(=O)O)c3ccccc3)C(=O)N2[C@H]1C(=O)O` (some centres not stated) [CARBENICILLIN] here?
Its MIC is over 512 µg/mL.
